{"source": "patent US20260191887A1", "about": "“METHODS OF TREATING INFLAMMATION” (THERAPEUTIKOS, INC., priority 2022, published 2026)", "system": "IL-6", "assay": "IL-6 ELISA in LPS-activated primary mouse peritoneal macrophages", "assay_type": "cell-based", "details": "LPS 100 ng/mL; NDX1 and NDX2 0.01, 0.1, 1 mM; NAG 0.1 and 1 mM; n=8", "experimental": "• 1. Non treatment (NT) • 2. LPS 100 ng/mL • 3. LPS 100 ng/mL+NDX1 dose1* • 4. LPS 100 ng/mL+NDX1 dose2* • 5. LPS 100 ng/mL+NDX1 dose3* • 6. LPS 100 ng/mL+NDX2 dose1 • 7. LPS 100 ng/mL+NDX2 dose2 • 8. LPS 100 ng/mL+NDX2 dose3 • 9. LPS 100 ng/mL+NAG dose2 • 10. LPS 100 ng/mL+NAG dose3 (*dose 1, 2, 3 were selected as low, middle and high dose with no cytotoxicity from the cytotoxic assay)\nThe peritoneal macrophages were isolated from peritoneal cavity, and cultured in Dulbecco's modified Eagle's medium (DMEM, Gibco BRL, Gaithersburg, MD) supplemented with 10% fetal bovine serum (FBS) (Hyclone Laboratories, Logan, VT) and 100 IU/mL penicillin G and 100 µg/mL streptomycin, in a humidified atmosphere of 5% carbon dioxide at 37° C. Cells will grow on a 96-well plate and co-treated with 100 ng/ml LPS (Sigma-Aldrich) 0.5 hours after addition of BNAGs and NAG. Twenty-four hours later, the cell number was counted by using the WST-1 kit (Fisher Scientific). After removal of the supernatant, […] new medium was added into each cell. […] Each sample was determined at 450 nm on a microplate reader.\nThe amounts of IL-6 and TNFα were measured by a commercial ELISA kit (Sigma-Aldrich), following the instructions provided by the manufacturer. […] The resultant solutions were read at 450 nm on a microplate reader.", "data": [{"smiles": "CC(=O)N[C@H]1C(O)O[C@H](CO)[C@@H](O)[C@@H]1O", "note": "(stereo partly shown) [NAG, N-acetyl glucosamine]", "values": [{"measurement": "reduction of IL-6 production (ELISA)", "result": "could significantly reduce IL-6 and TNFa production"}]}]}
